According to ChEMBL document CHEMBL1269006, “Synthetic human serum albumin Sudlow I binding site mimics” (J Med Chem, 2010):

Assay: Displacement of [3H](S)-warfarin from methacrylic acid-ethylene dimethacrylate copolymer
For `O=c1ccc2ccccc2o1` [COUMARIN], the EC50 was 1290 µM and the logEC50 was -2.89.
In the case of `CC(=O)CC(c1ccc(Cl)cc1)c1c(O)c2ccccc2oc1=O` (stereo unspecified) [COUMACHLOR], the EC50 is reported as 165 µM and the logEC50 is reported as -3.78.
For `CC(=O)CC(c1ccccc1)c1c(O)c2ccccc2oc1=O` (stereo unspecified) [WARFARIN], the EC50 was 89.6 µM and the logEC50 was -4.05.
